Measured values: patent publication US11638425B2, “Agent for inducing stress tolerance in plants” (Menicon Co. Ltd., priority 2017, dated 2023)

Columns and labels:
[1] = test system: HSP17.6C-C1 of Arabidopsis thaliana; experiment: HSP expression test (HSP17.6C-C1 upstream region linked to GUS, 4-MU production); format: in vivo; design: key: 4-MU per plant divided by 4-MU of 50 μM geldanamycin positive control; conditions: soaked 6 hours at 22° C., positive control 50 μM geldanamycin
Experimental: First, a construct linked to β-glucuronidase (GUS) gene was introduced to 1 kb upstream of HSP17.6C-C1 of Arabidopsis thaliana (the family Brassicaceae) to prepare a mutant. Each naphthoquinone compound (shown in Table 1) dissolved in DMSO was diluted to 1 μM, 10 μM, 100 μM, or 1000 μM (final concentration) with deionized water to prepare a test solution of each example (final concentration of DMSO: 1.0% by volume). A 50 μM geldanamycin solution was similarly prepared as a positive control.
Next, two individuals of 7-day-old Arabidopsis thaliana mutants grown in a ⅕ MS medium were soaked in 300 μL of the test solution of each example or the positive control at 22° C. for 6 hours. The Arabidopsis thaliana was washed with deionized water, then soaked in 200 μL of a 4-methylumbelliferyl-β-D-glucuronide hydrate solution containing a surfactant, and incubated at 22° C. for 16 hours in the dark. The fluorescence intensity of the supernatant was measured, and the amount of 4-methylumbelliferone (4-MU) production per plant was calculated. The calculated value of 4-MU was divided by the value of 4-MU of the positive control to calculate a ratio vs. positive control. A higher numerical value means that HSP was expressed at a larger level.
Each shikonin compound or alkannin compound (shown in Table 2) dissolved in DMSO was diluted to 1 μM, 10 μM, 100 μM, or 1000 μM (final concentration) with deionized water to prepare a test solution of each example (final concentration of DMSO: 1.0% by volume). A 50 μM geldanamycin solution was similarly prepared as a positive control. The other test procedures were performed in the same way as in Test Example 1. The calculated value of 4-MU was divided by the value of 4-MU of the positive control to calculate a ratio vs. positive control. […]

Arabidopsis thaliana = experiment: Heat tolerance induction test based on chlorophyll concentration; format: in vivo; conditions: 50 μM in medium; heat-treated at 44° C. for 1 hour; 3 days culture after
Experimental: A ⅕ MS medium was prepared in a 6-well plate, and filter paper was placed thereon. 12 individuals of wild-type Arabidopsis thaliana were seeded per well and grown at 22° C. for 7 days in a plant incubator under 16-hour light and 8-hour dark conditions. Next, the naphthoquinone compound of each example (shown in Table 3) dissolved in DMSO was added to a ⅕ MS medium, and each medium (final concentration: 50 μM) was prepared in a 6-well plate (final concentration of DMSO: 1.0% by volume). A medium containing 1.0% by volume of DMSO was used as a control.
The Arabidopsis thaliana grown for 7 days in the 6-well plate was transplanted, together with the filter paper, to the medium containing the compound and cultured for 1 day in a plant incubator. The plate was placed in a plastic bag and heat-treated at 44° C. for 1 hour in a water bath. After the heat treatment, culture was performed for 3 days in a plant incubator. The leaves of 4 Arabidopsis thaliana individuals were cut out, and chlorophyll was extracted with 300 μL of ethanol. The absorbance of each extract was measured at 649 nm and 665 nm, and the chlorophyll concentration (mg/L) was calculated. A higher chlorophyll concentration means that heat tolerance is better.
The shikonin compound of each example (shown in Table 4) dissolved in DMSO was added to a ⅕ MS medium, and each medium (final concentration: 50 μM) was prepared in a 6-well plate (final concentration of DMSO: 1.0% by volume). A medium containing 1% by volume of DMSO was used as a control. The other test procedures were performed in the same way as in Test Example 3.
The Lithospermi radix extract used was Shikonix Liquid (BG) (trade name, manufactured by Ichimaru Pharcos Co., Ltd.) containing a Lithospermum erythrorhizon root extract. The Shikonix Liquid contained, as major components, shikonin compounds such as acetylshikonin, β-hydroxyisovalerylshikonin, and isobutyrylshikonin. The Shikonix Liquid also contained, as additional minor components, α-methyl-n-butylshikonin, β,β-dimethylacrylshikonin, isovalerylshikonin, and shikonin.
The Shikonix Liquid (BG) was added at a dilution ratio of 150-fold to a ⅕ MS medium. The same amount of water was added as a control. ThermoZyme (manufactured by Fujimikogyo Co., Ltd.) was added at a dilution ratio of 150-fold as a positive control (Reference Example). The other test procedures were performed in the same way as in Test Example 3.

sprouted alfalfa = experiment: Spindly growth suppression test of seedling; format: in vivo, Medicago sativa; conditions: 50 μL sprayed per individual, 10 days at 25° C.
Experimental: A spindly growth suppression test was conducted using sprouted alfalfa as a seedling and naphthoquinone compounds as quinone compounds. First, just-sprouted alfalfa (Medicago sativa of the family Leguminosae) was transplanted to a plastic cup containing vermiculite. Each naphthoquinone compound (shown in Table 5) dissolved in DMSO was diluted to 100 μM or 1000 μM (final concentration) with deionized water to prepare a test solution of each example (final concentration of DMSO: 1.0% by volume). An aqueous solution containing 1.0% by volume of DMSO was used as a test solution of a control. 50 μL of the test solution was sprayed per alfalfa individual. Then, cultivation was performed for 10 days in an incubator of 25° C., followed by hypocotyl length measurement.

maize [2] = experiment: Drought tolerance improvement test of maize; format: in vivo; conditions: 10 μM, 2 mL/cell; 19 days without water, counted 5 days after water addition
Experimental: Four parts each involving 9 cells (3×3) were cut out of a 72-cell tray. Seedling soil was placed therein, and water was added. 4 seeds of maize were seeded per cell. The temperature was set to 20° C. using a plant growth chamber, followed by cultivation under 16-hour light and 8-hour dark conditions. After budding, each naphthoquinone compound dissolved in DMSO was diluted to 10 μM (final concentration) with deionized water to prepare a test solution of each example (final concentration of DMSO: 1.0% by volume). Each test solution was sprayed to leaf surface in one of the cell trays. The volume of the test solution sprayed was set to 2 mL/cell. The same volume of water was sprayed to the other cell tray and used as a control. After the spraying, cultivation was continued without the addition of water. 19 days after the spraying, water was added to the soil. 5 days after the water addition, the number of maize survivors was counted and divided by the initial number of growing plants to calculate a survival rate (%).

maize [3] = experiment: Salt tolerance improvement test of maize; format: in vivo; conditions: 10 μM, 2 mL/cell; 1.0% NaCl five times every two days; fresh weight
Experimental: (§1) Two parts each involving 9 cells (3×3) were cut out of a 72-cell tray. Seedling soil was placed therein, and water was added. 4 seeds of maize were seeded per cell. The temperature was set to 20° C. using a plant growth chamber, followed by cultivation under 16-hour light and 8-hour dark conditions. After budding, Shikonix Liquid (BG) (manufactured by Ichimaru Pharcos Co., Ltd.) was diluted 500-fold and sprayed as the Lithospermi radix extract to leaf surface in one of the cell trays. The volume of the Shikonix Liquid sprayed was set to 2 mL/cell. The same volume of water was sprayed to the other cell tray and used as a control. Two days later, a 1.0% NaCl solution was prepared and absorbed from the underside of each cell tray. The NaCl solution treatment was performed five times every two days. The above-ground parts were cut off, and their fresh weights were measured. An average value (g/plant) was calculated.
as §1, with “Four parts” for “Two parts”, “budding, each naphthoquinone compound dissolved in DMSO” for “budding, Shikonix Liquid (BG) (manufactured by Ichimaru Pharcos Co., Ltd.)”, “diluted to 10 μM (final concentration) with deionized water to prepare a test solution of each example (final concentration of DMSO: 1.0% by volume). Each test solution was” for “diluted 500-fold and”, “sprayed” for “sprayed as the Lithospermi radix extract”, “the test solution” for “the Shikonix Liquid”

Row | SMILES | Ratio of 4-MU amount vs. positive control ([1]; 1 μM) | Ratio of 4-MU amount vs. positive control ([1]; 10 μM) | Ratio of 4-MU amount vs. positive control ([1]; 100 μM) | Ratio of 4-MU amount vs. positive control ([1]; 1000 μM) | Chlorophyll concentration (Arabidopsis thaliana) [mg/L] | Hypocotyl length (sprouted alfalfa; 100 μM) [mm] | Hypocotyl length (sprouted alfalfa; 1000 μM) [mm] | Survival rate (maize [2]) [%] | Above-ground part weight (maize [3]) [g/plant]
1 | O=C1C(Cl)=C(Cl)C(=O)c2c(O)ccc(O)c21 [Example 7, 2,3-Dichloro-5,8-dihydroxy-1,4-naphthoquinone] | 0.80 | 5.91 | 1.72 | 0.95 | 6.12 | 18.1 | 14.6 | 88 | 0.677
2 | O=C1C=CC(=O)c2c(O)ccc(O)c21 [Example 5, 5,8-Dihydroxy-1,4-naphthoquinone] | 0.48 | 2.49 | 1.96 | 0.78 | 6.66 | 14.6 | 15.2 | 92 | 0.653
